Source: PubChem BioAssay (NCI)
“And” between values parts separate entries of the source, which are not always exact repeats. Identical values can stand only once.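 How tested: cells in 96-well plates exposed to compound for 48 hours at five concentrations. Abbreviation: GI50, concentration required for 50% inhibition of growth. Definition used: TGI = concentration required for complete inhibition of growth.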

Key:
Assay in all cases: growth of human tumour cells (NCI), 48 h
HOP-92 NSCLC = system: HOP-92 NSCLC
HS 578T breast = system: HS 578T breast
MDA-MB-435 = system: MDA-MB-435
OVCAR-4 ovarian = system: OVCAR-4 ovarian
OVCAR-8 ovarian = system: OVCAR-8 ovarian
RXF 393 renal = system: RXF 393 renal
SNB-75 CNS = system: SNB-75 CNS
UACC-62 melanoma = system: UACC-62 melanoma
M19-MEL melanoma = system: M19-MEL melanoma
DLD-1 colon = system: DLD-1 colon

Compound | GI50 (HOP-92 NSCLC) | TGI (HOP-92 NSCLC) | GI50 (HS 578T breast) [µM] | TGI (HS 578T breast) | GI50 (MDA-MB-435) | TGI (MDA-MB-435) [µM] | GI50 (OVCAR-4 ovarian) [nM] | TGI (OVCAR-4 ovarian) [µM] | GI50 (OVCAR-8 ovarian) | TGI (OVCAR-8 ovarian) [µM] | GI50 (RXF 393 renal) [µM] | TGI (RXF 393 renal) | GI50 (SNB-75 CNS) | TGI (SNB-75 CNS) | GI50 (UACC-62 melanoma) [µM] | TGI (UACC-62 melanoma) | TGI (M19-MEL melanoma) [µM] | TGI (DLD-1 colon) [µM]
CCCCNC(=O)NS(=O)(=O)c1ccc(N2N=C(c3cc(C)ccc3C)CC2c2cc(OC)c(OC)c(OC)c2)cc1 (centres undefined) | 1270 nM | 4.63 µM | 2.2 | 5.78 µM | 1.75 µM | 4.24 | 2520 | 14.5 | 3.03 µM | 10.5 | 2.61 | 6.97 µM | 2120 nM | 5.83 µM | 1.83 | 4.27 µM | – | –
FC(F)(F)c1ccc(-c2cnc(Cl)nc2NCc2cc(C(F)(F)F)cc(C(F)(F)F)c2)cc1 | 1370 nM | 4.3 µM | 3.03 | > 100 µM | 2.96 µM | > 100 | 2940 | > 100 | 3.48 µM | > 100 | 3.15 | > 100 µM | 1700 nM | > 100 µM | 3.34 | > 100 µM | – | –
Clc1nc(Cl)c(-c2ccccc2)c(Cl)n1 | – | 11.4 µM | – | > 100 µM | – | 9.55 | – | 6.55 | – | 10.6 | – | 5.58 µM | – | > 54.8 µM | – | 10.7 µM | – | –
O=C(CCc1cc(-c2ccccc2)nc(=S)[nH]1)Nc1ccccc1[N+](=O)[O-] | – | > 100 µM | – | – | – | – | – | – | – | > 100 | – | > 100 µM | – | > 100 µM | – | > 100 µM | > 100 | –
CCOC(=O)c1nc(-c2ccccc2)oc1OCC | – | – | – | – | – | – | – | > 100 | – | > 100 | – | > 100 µM | – | > 100 µM | – | > 100 µM | > 100 | > 100
Nc1nc(N)c(N=O)c(OCC2CCCCC2)n1 | 2250 nM | 8.41 µM and 59.2 µM | 2.81 | 21 µM and 46.1 µM | 12.8 µM | > 85.3 | 6030 | > 75.5 | – | > 100 | 8.04 | 42.3 µM and 48.1 µM | – | 42.3 µM and 50.2 µM | – | 42.6 µM and 40.7 µM | – | –
O=C(c1cccnc1)c1cc(-c2ccccn2)c(=O)n2ccccc12 | > 100000 nM | > 100 µM | > 100 | > 100 µM | > 100 µM | > 100 | > 100000 | > 100 | > 100 µM | > 100 | > 100 | > 100 µM | > 100000 nM | > 100 µM | > 100 | > 100 µM | – | –
OCC1OC(n2cnc3c(=S)nc[nH]c32)C(O)C1O (centres undefined) | 698 nM | > 1780 µM | 12.8 | > 2500 µM | 3.89 µM | > 2500 | 4050 | > 2500 | 6.36 µM | > 2500 | > 100 | > 2500 µM | 34100 nM | > 2500 µM | 3.56 | 1910 µM and > 100 µM | > 2500 | –
O=C(CCCSc1nc(-c2ccccc2)cc(-c2ccc(Cl)cc2)n1)NO | 2290 nM | 8.26 µM | 4.78 | 24 µM | 3.11 µM | 14.8 | 1120 | 14.4 | 0.596 µM | 16.2 | 0.445 | 2.55 µM | 2080 nM | 10.4 µM | 1.45 | 3.89 µM | – | –
O=C(CN1CCN(c2ccccc2)CC1)N1CCN(c2nnc(-c3ccc(Cl)cc3)c(-c3ccc(Cl)cc3)n2)CC1 | 12100 nM | 27.9 µM | 16.5 | > 100 µM | 13.7 µM | > 100 | 11000 | > 100 | 16.3 µM | > 100 | 9.41 | 63.3 µM | 14000 nM | 71.1 µM | 15.9 | > 100 µM | – | –
CCOC(=O)c1nc(Nc2ccc(Cl)cc2)c2ccccc2n1 | 9490 nM | 26.8 µM | 11.3 | 27.2 µM | 6.85 µM | 13.3 | 11300 | 47.9 | 12.3 µM | 28.5 | 7.35 | 16.8 µM | 11900 nM | 29.5 µM | 10 | 20.5 µM | – | –
CCN(CC)c1ccc(C(=N)c2ccc(N(C)C)cc2)cc1 | 1050 nM | 4.22 µM | 0.19 | 2.67 µM | 0.0962 µM | 1.05 | 2750 | > 39.5 | 1.94 µM | 6.51 | 1.18 | 4.02 µM | 2260 nM | > 21.7 µM | 1.35 | 7.03 µM | – | –
c1ccc(CSc2nnc3c4ccccc4c4ccccc4c3n2)cc1 | – | 59.7 µM | – | > 100 µM | – | > 100 | – | > 96.3 | – | > 100 | – | > 79.5 µM | – | 21.6 µM | – | > 100 µM | – | –
COC(=O)c1cc(-c2cccn2C)c2c(c1C(=O)OC)c1ccccc1n2C | – | > 100 µM | – | – | – | – | – | > 100 | – | > 100 | – | > 100 µM | – | > 100 µM | – | > 100 µM | – | > 100
S=C(Nc1cc(Cl)c(Cl)cc1Cl)SCc1ccccc1 | – | 75.8 µM | – | > 100 µM | – | 38.6 | – | 65.3 | – | 51.5 | – | > 100 µM | – | > 100 µM | – | > 100 µM | – | –
c1ccc(P(CCP(CCP(c2ccccc2)c2ccccc2)c2ccccc2)CCP(c2ccccc2)c2ccccc2)cc1 (centres undefined) | > 10000 nM and 2250 nM | > 10 µM | – | > 10 µM | > 10 µM and 3.67 µM | > 10 | – | > 10 | > 10 µM and 1.87 µM | > 10 | – | > 10 µM | 4550 nM and 1910 nM | > 10 µM | – | > 10 µM | – | –
Nc1n[nH]c2ccc([C@@H]3Nc4ccc5[nH]ncc5c4[C@H]4C5C=CC(C5)[C@@H]34)cc12 (some centres undefined) | 1460 nM | 10.7 µM | 0.27 | 21.2 µM | 0.0794 µM | 0.444 | 1760 | > 90.7 | 0.563 µM | > 89.5 | 0.11 | 0.599 µM | 176 nM | 24.8 µM | 0.213 | 18.5 µM | – | –
